Data: patent publication US9363996B2, “Compositions and method for blocking ethylene response in field crops using 3-(cy-clopropyl-l-enyl)-propanoic salt” (Yissum Research Development Company of the Hebrew …, priority 2009, dated 2016)

Columns and labels:
[1] = system: young cotton seedlings; assay: Ethylene-induced leaf epinasty of young cotton seedlings; assay type: in vivo, cotton (Gossyium hirsutum barbadense L.)
Experimental: (1) Abscission-This is a very sensitive model system for studying the effects of plant hormones. Ethylene induces the process of abscission, while auxin delays it. In the laboratory the experimental system is based on plant organ explants, which include the abscission zone. Abscission is induced by exposure to ethylene and at the termination of the experiment the number of abscised organs, usually either leaf blades or petioles are counted and the fraction of abscission is calculated. In the case of fruit, the decrease in fruit retention force is analyzed. […] The plants or explants are then further exposed for 24 h to ethylene gas (5 to 20 μL L^-1). The plants or explants are then ventilated and incubated for the required time under controlled conditions. At the end of the experiment the percentage of abscission is determined. […] Plant material (whole plants, excised leaves or leaf discs) are pretreated. […] The plants or explants are then ventilated and incubated for the required time under controlled conditions. At the end of the experiment a dimethylsulfoxide (DMSO) extract of the plant tissue is prepared, and the chlorophyll content of the extract is determined by spectrophotometric analysis. […] The extent of ethylene-induced epinasty of leaves is determined by measuring the change of the angle between the petiole and the stem shoot or blade. […]

[2] = system: tobacco seedlings; assay: Ethylene-induced chlorophyll degradation in tobacco seedling leaves; assay type: in vivo, tobacco (Nicotiana tabacum var. 'Samsun')
Experimental: (1) Abscission—This is a very sensitive model system for studying the effects of plant hormones. Ethylene induces the process of abscission, while auxin delays it. In the laboratory the experimental system is based on plant organ explants, which include the abscission zone. Abscission is induced by exposure to ethylene and at the termination of the experiment the number of abscised organs, usually either leaf blades or petioles are counted and the fraction of abscission is calculated. In the case of fruit, the decrease in fruit retention force is analyzed. In cotton, when WS-CPD (the ethylene-action antagonist herein disclosed) is tested, the whole plants or explants are pretreated by spraying with the antagonist, dissolved in a phosphate buffer solution (10-20 mM, pH 7.0) including 0.1% commercially available Kinetic™ as surfactant, and left to incubate for a predetermined time, usually between 6 and 24 h. The plants or explants are then further exposed for 24 h to ethylene gas (5 to 20 μL L^−1). The plants or explants are then ventilated and incubated for the required time under controlled conditions. At the end of the experiment the percentage of abscission is determined. (2) Chlorophyll degradation—This is a standard model for studying senescence. Plant material (whole plants, excised leaves or leaf discs) are pretreated. In cotton, tobacco and wheat, when WS-CPD is tested, the whole plants or explants are pretreated by spraying with the antagonist, dissolved in phosphate buffer solution (10-20 mM, pH 7.0) including 0.1% commercially available Kinetic™ surfactant, and left to incubate for a predetermined time, usually between 6 and 241. The plants or explants are then further exposed for 24 h to ethylene gas (1 to 100 μL L^−1), or sprayed with Ethephon™ (wheat; 250 to 750 μL L^−1). The plants or explants are then ventilated and incubated for the required time under controlled conditions. At the end of the experiment a dimethylsulfoxide (DMSO) extract of the plant tissue is prepared, and the chlorophyll content of the extract is determined by spectrophotometric analysis. The chlorophyll content is reported either on a fresh, dry weight basis, or on a surface area basis. (3) Epinasty—This is also one of the classical methods for studying ethylene effects in plants. The extent of ethylene-induced epinasty of leaves is determined by measuring the change of the angle between the petiole and the stem shoot or blade. After exposure of the intact plant to ethylene, the upright grown leaves bend downward. The increase in the angle values (degrees) between petiole and the stem is used as a measure of the effect of the ethylene. […]

In the case of `O=C([O-])CCC1=CC1.[Na+]` [WS-CPD, 3-cyclopropyl-1-enyl-propanoic sodium salt], the ethylene-induced leaf epinasty ([1]; WS-CPD 10 and 30 μg mL^−1, ethylene 10 μL L^−1) is reported as “completely reversed”, the ethylene-induced epinasty ([1]; WS-CPD spray 10 to 300 μg mL^−1, 24 h later ethylene 10 μL L^−1 for 24 h, three-week-old seedlings) is reported as “completely antagonized” and the ethylene-induced chlorophyll degradation ([2]; WS-CPD 14 μg mL^−1 pretreatment spray, young and mature leaves) is reported as “completely reversed”. For the same compound, the ethylene-induced chlorophyll degradation ([2]; higher concentrations of WS-CPD) was “less effective”.
